Source: PubChem BioAssay (NCI)
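Protocol summary: plate cells (96-well), add compound at 5 concentrations, incubate 48 h, interpolate endpoints linearly. TGI denotes the concentration required for complete inhibition of growth.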 *1 amine or outer side, *2 acyl side, *3 side chain or, on linkers, in order; H or OH if unused. Where a SMILES comes first, the peptide text is derived from it. [ ]: non-standard residue; d: D form. The star is where a group is joined. ξ: configuration not given here. NMeY = CN[C@@H](Cc1ccc(O)cc1)C(=O)O; Ethylenediamine = C(CN[*:2])N[*:1]; ξNMeL = CNC(CC(C)C)C(=O)O; Cbz = O=C(OCc1ccccc1)*; Lac = C[C@H](O)C(=O)O; ξA = CC(N)C(=O)O

How the values were obtained:
Test in all cases: DTP human tumour cell line panel, 48 h
OVCAR-8 ovarian = test system: OVCAR-8 ovarian
U251 CNS = test system: U251 CNS
HCT-15 colon = test system: HCT-15 colon
HOP-18 NSCLC = test system: HOP-18 NSCLC
LXFL 529 NSCLC = test system: LXFL 529 NSCLC
KM20L2 colon = test system: KM20L2 colon
DLD-1 colon = test system: DLD-1 colon
DMS 273 small cell lung = test system: DMS 273 small cell lung
SNB-78 CNS = test system: SNB-78 CNS
DMS 114 small cell lung = test system: DMS 114 small cell lung
M19-MEL melanoma = test system: M19-MEL melanoma
XF 498 CNS = test system: XF 498 CNS

| SMILES | TGI (OVCAR-8 ovarian) | TGI (U251 CNS) | TGI (HCT-15 colon) | other results |
| --- | --- | --- | --- | --- |
| Cc1c2n(c3ccccc13)S(=O)(=O)c1ccccc1-2 | 60.1 µM | 37.9 µM | > 100 µM | – |
| N#Cc1c(C#N)c(-c2ccccc2)n(Cc2ccccc2)c1N | 75.4 µM | > 100 µM | > 100 µM | – |
| NC(=O)CN1CC(C2=C(O)CN(CC(N)=O)C2=O)=CC1=O | > 100 µM | > 100 µM | > 100 µM | – |
| Cc1ccc(S(=O)(=O)N2CCCSCCSCCCN(S(=O)(=O)c3ccc(C)cc3)CC2)cc1 | > 100 µM | > 100 µM | > 100 µM | – |
| COc1ccc(C[C@@H](C(=O)NCCNC(=O)C(CC(C)C)N(C)C(=O)[C@@H]2CCCN2C(=O)[C@H](C)O)N(C)C(=O)[C@@H]2CCCN2C(=O)[C@H](CC(C)C)NC(=O)C(C)NC(=O)OCc2ccccc2)cc1 (stereo partly specified) (Cbz-[ξA]LP[NMeY](Me)-{Ethylenediamine-ξNMeL-Pro-Lac}) | > 100 µM | > 100 µM | > 100 µM | – |
| CC(=O)N1c2ccccc2C2=NN(C)C(=N)SC21 (stereo unspecified) | > 100 µM | > 100 µM | > 100 µM | – |
| CCOC(=O)/C(=C\NC(C)(C)C)c1nc2ccccc2[nH]1 | 64.2 µM | – | > 100 µM | – |
| COC(=O)CCC1=NCC(C)(C)O1 | > 10 µM | > 10 µM | > 10 µM | – |
| COC(=O)c1cc(OS(=O)(=O)C(F)(F)F)c(=O)n2c1CCCC2 | > 100 µM | > 100 µM | > 100 µM | – |
| O=C(/C=C/c1ccc(OCc2ccccc2)cc1)NCc1ccc(C(=O)NCCc2c[nH]c3ccccc23)cc1 | 31.7 µM | 20.5 µM | > 100 µM | – |
| Cc1ccc(/C=C2/N=C(N/N=C\C(O)C(O)C(O)CO)NC2=O)cc1 (stereo unspecified) | > 100 µM | > 100 µM | > 100 µM | – |
| O=C(CC(O)(C(F)(F)F)C(F)(F)Cl)CC(O)(C(F)(F)F)C(F)(F)Cl (stereo unspecified) | > 10 µM | 8.39 µM | > 10 µM | – |
| COc1cc2oc(=O)cc(C)c2c(OC)c1O | > 100 µM | > 100 µM | > 100 µM | – |
| CN(C)CCNCc1ccc2c(-c3ccccc3)nc3cc(Cl)c(Cl)cc3n12 | 27.7 µM | 22.7 µM | 23.2 µM | – |
| CC(=O)NC1C(OC(C)C(=O)NC(C(=O)NC(CCC(=O)NCCCNC2c3ccccc3Nc3cccc([N+](=O)[O-])c32)C(N)=O)C(C)C)C(O)C(CO)OC1(C)OCc1ccccc1 (stereo unspecified) | 3.28 µM | 3.22 µM | 1.97 µM | – |
| COc1cccc2c1C1(O)C2CCCCCCCCCC12OCCCO2 (stereo unspecified) | > 100 µM | > 100 µM | > 100 µM | TGI (HOP-18 NSCLC): > 100 µM; TGI (LXFL 529 NSCLC): > 100 µM; TGI (KM20L2 colon): > 100 µM; TGI (DLD-1 colon): > 100 µM; TGI (DMS 273 small cell lung): > 100 µM; TGI (SNB-78 CNS): > 100 µM; TGI (DMS 114 small cell lung): > 100 µM |
| C[C@@H]1[C@H](O)CC2=C(CC[C@@H](O)C2(C)C)[C@@]1(CO)CCc1ccoc1 | > 50 µM | > 50 µM | > 50 µM | – |
| O=C1c2c(Br)sc(Br)c2[C@@H](Cl)[C@H]1Cl | 42.5 µM | 34.8 µM | 71.3 µM | – |

| SMILES | TGI (OVCAR-8 ovarian) | TGI (U251 CNS) | TGI (HCT-15 colon) | other results |
| --- | --- | --- | --- | --- |
| O=C(O)CCO/N=C1/C(c2c(O)[nH]c3ccccc23)=Nc2ccccc21 | > 100 µM | > 100 µM | 42.3 µM | – |
| COc1ccc(C2C(C#N)=C(S)N(C3OC(COC(C)=O)C(OC(C)=O)C(OC(C)=O)C3OC(C)=O)C(C)=C2C(C)=O)cc1 (stereo unspecified) | – | > 100 µM | > 100 µM | – |
| CC(C)(C)OC(=O)N1CC(CCl)c2ccc(O)cc21 (stereo unspecified) | 11.7 µM | 12.1 µM | 10 µM | – |
| Cc1cccc(NC(=O)O/N=C(\Cl)C(C)C)c1 | 34.2 µM | 43.2 µM | 4.98 µM | – |
| CCOC(=O)C(C)Sc1nnc(COc2ccc(Cl)cc2)n1-c1ccccc1 (stereo unspecified) | 60 µM | 35.1 µM | 27.8 µM | TGI (M19-MEL melanoma): 34.9 µM; TGI (HOP-18 NSCLC): > 100 µM; TGI (LXFL 529 NSCLC): 30.4 µM; TGI (KM20L2 colon): 33 µM; TGI (DLD-1 colon): 35.1 µM; TGI (DMS 273 small cell lung): 29.9 µM; TGI (SNB-78 CNS): 95.2 µM |
| O=C1C[C@H](COCc2ccccc2)NC(=O)C[C@H](COCc2ccccc2)NC(=O)C[C@H](COCc2ccccc2)N1 | > 100 µM | > 100 µM | > 100 µM | – |
| N#CCCN(CCC#N)c1ccc(C(N=Nc2ccc(Cl)cc2)=Nc2ccccc2)cc1 | 28.7 µM | 32.4 µM | 21.2 µM | – |
| CCOC(=O)Nc1sc2c(c1C#N)CC(C)CC2 (stereo unspecified) | > 100 µM | > 100 µM | > 100 µM | – |
| CCO/S(=N/S(=O)(=O)c1ccccc1)c1ccccc1[N+](=O)[O-] (stereo unspecified) | > 100 µM | > 100 µM | > 100 µM | TGI (M19-MEL melanoma): > 100 µM; TGI (HOP-18 NSCLC): > 100 µM; TGI (XF 498 CNS): > 100 µM; TGI (LXFL 529 NSCLC): > 100 µM; TGI (KM20L2 colon): > 100 µM; TGI (DLD-1 colon): > 100 µM; TGI (DMS 273 small cell lung): > 100 µM; TGI (DMS 114 small cell lung): > 100 µM |
| O=[N+]([O-])C1=Cc2cc(Cl)ccc2OC1c1cccc2ccccc12 (stereo unspecified) | 1.42 µM | 3.17 µM | 2.95 µM | – |
| O=C1c2c(ccc3c2CCC3)CC1Cc1ccc2c(c1)CCC2 (stereo unspecified) | > 100 µM | > 100 µM | > 100 µM | – |
| CC[C@H](C)C1=C(OC(C)=O)[N@+]2([O-])Oc3ccc(-c4c(O)c(O)c(-c5ccc(OC(C)=O)cc5)c(OC(C)=O)c4OC(C)=O)cc3O[C@]2([C@@H](C)CC)C(=O)N1O | > 50 µM | > 50 µM | > 50 µM | – |
| Cn1c2c(c3ccccc31)CCN=C2C1CCCOC1=O (stereo unspecified) | > 100 µM | > 100 µM | > 100 µM | – |
| Cn1nc2ccc([N+](=O)[O-])cc2[n+]1[O-] | > 100 µM | > 100 µM | > 100 µM | – |
| C=C1[C@H]2O[C@H]2[C@@H](OC(C)=O)[C@@]2(C)[C@@H](OC(C)=O)C[C@@H](OC(=O)CCC)[C@@](C)(O)[C@@H]2[C@@H](OC(C)=O)[C@]2(O)[C@@H](C)C(=O)O[C@H]2[C@H]1Cl | > 100 µM | > 100 µM | > 100 µM | – |
| c1csc(-c2nccc3c2[nH]c2ccccc23)c1 | 42.8 µM | 75.9 µM | 48.1 µM | – |
| C=C(Cl)/C(=C\Cl)CCC(Cl)C(C)C (stereo unspecified) | – | > 100 µM | – | – |
| COC1=N[C@H](C(C)C)C(OC)=N[C@H]1Cc1ccc(C[C@@H]2N=C(OC)[C@@H](C(C)C)N=C2OC)s1 | > 100 µM | 70.5 µM | > 100 µM | – |
